Numbered stars: 1 amine (or outer) side, 2 acyl side, 3 side chain; on linkers, the order of the positions; unused ones are H or OH. Side chains are listed from the residue outwards. Peptide text beside a SMILES is read from it. * marks the point of attachment. C18 diacid = O=C(O)CCCCCCCCCCCCCCCCC(=O)*; γGlu = O=C(O)[C@H](CCC(=O)[*:2])N[*:1]; AEEA = NCCOCCOCC(=O)O

The first data set can be described thus: Assay (II) PK i.v. minipig, in vivo half-life. Also on record: species or system Göttingen mini-pigs. The note with it: male, Göttingen, minipig, iv. The essentials: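 Plasma levels after a single 6 nmol/kg intravenous dose in five male Göttingen mini-pigs were measured by TFC/LC/MS/MS against spiked-plasma calibration, sampling to 240 h. Vehicle: 50 mM K2HPO4, 0.05% tween 80, pH 8.0. Individual profiles analysed non-compartmentally for half-life.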
With `CC[C@H](C)[C@H](NC(=O)[C@H](Cc1ccc(O)cc1)NC(=O)[C@H](CCCNC(=N)N)NC(=O)[C@H](CCCNC(=N)N)NC(=O)[C@H](CC(C)C)NC(=O)[C@H](CC(=O)O)NC(=O)[C@H](C)NC(=O)[C@H](C)NC(=O)[C@H](Cc1ccc(O)cc1)NC(=O)[C@H](CCC(N)=O)NC(=O)[C@H](C)NC(=O)[C@H](CCSC)NC(=O)[C@H](CCC(N)=O)NC(=O)[C@H](CCC(=O)O)NC(=O)[C@@H]1CCCN1C(=O)[C@@H](NC(=O)[C@H](C)NC(=O)[C@H](CC(N)=O)NC(=O)[C@H](CC(=O)O)NC(=O)CNC(=O)[C@@H]1CCCN1C(=O)[C@H](Cc1ccc(O)cc1)NC(=O)[C@@H](NC(=O)[C@@H]1CCCN1C(=O)[C@H](CCC(=O)O)NC(=O)[C@H](CC(C)C)NC(=O)[C@@H]1CCCN1C(=O)COCCOCCNC(=O)COCCOCCNC(=O)CC[C@H](NC(=O)CCCCCCCCCCCCCCCCC(=O)O)C(=O)O)C(C)C)[C@@H](C)O)C(=O)N[C@@H](CC(N)=O)C(=O)N[C@@H](CCSC)C(=O)N[C@@H](CC(C)C)C(=O)N[C@H](C(=O)N[C@@H](CCCNC(=N)N)C(=O)N1CCC[C@H]1C(=O)N[C@@H](CCCNC(=N)N)C(=O)N[C@@H](Cc1ccc(O)cc1)C(N)=O)[C@@H](C)O` [Compound AF], the “Half-life minipig, Assay (II)” value was found to be 36 h.

The data set is the same for the next values; noted with them: male, Göttingen, minipig, iv, Half-life minipig, Assay (II).
The term half-life denotes the time in which the quantity being followed falls by half. Turning to `CC[C@H](C)[C@H](NC(=O)[C@H](Cc1ccc(O)cc1)NC(=O)[C@H](CCCNC(=N)N)NC(=O)[C@H](CCCNC(=N)N)NC(=O)[C@H](CC(C)C)NC(=O)[C@H](CC(=O)O)NC(=O)[C@H](C)NC(=O)[C@H](C)NC(=O)[C@H](Cc1ccc(O)cc1)NC(=O)[C@H](CCCCNC(=O)COCCOCCNC(=O)COCCOCCNC(=O)CC[C@H](NC(=O)CCCCCCCCCCCCCCCCC(=O)O)C(=O)O)NC(=O)[C@H](C)NC(=O)[C@H](CCSC)NC(=O)[C@H](CCC(N)=O)NC(=O)[C@H](CCC(=O)O)NC(=O)[C@@H]1CCCN1C(=O)[C@@H](NC(=O)[C@H](C)NC(=O)[C@H](CC(N)=O)NC(=O)[C@H](CC(=O)O)NC(=O)CNC(=O)[C@@H]1CCCN1C(=O)[C@H](Cc1ccc(O)cc1)NC(=O)[C@@H](NC(=O)[C@@H]1CCCN1C(=O)[C@H](CCC(=O)O)NC(=O)[C@H](CC(C)C)NC(=O)[C@@H]1CCCN1)C(C)C)[C@@H](C)O)C(=O)N[C@@H](CC(N)=O)C(=O)N[C@@H](CCSC)C(=O)N[C@@H](CC(C)C)C(=O)N[C@H](C(=O)N[C@@H](CCCNC(=N)N)C(=O)N1CCC[C@H]1C(=O)N[C@@H](CCCNC(=N)N)C(=O)N[C@@H](Cc1ccc(O)cc1)C(N)=O)[C@@H](C)O` [Compound O] (H-PLEPVYPGDNATPEQMAK([AEEA-AEEA-γGlu-C18 diacid])YAADLRRYINMLTRPRY-NH2; N-terminus and C-terminus assumed), the half-life was 60 h.
Same read-out and setting: to `CC[C@H](C)[C@H](NC(=O)[C@H](Cc1ccc(O)cc1)NC(=O)[C@H](CCCNC(=N)N)NC(=O)[C@H](CCCNC(=N)N)NC(=O)[C@H](CC(C)C)NC(=O)[C@H](CC(=O)O)NC(=O)[C@H](C)NC(=O)[C@H](C)NC(=O)[C@H](Cc1ccc(O)cc1)NC(=O)[C@H](CCC(N)=O)NC(=O)[C@H](C)NC(=O)[C@H](CCSC)NC(=O)[C@H](CCC(N)=O)NC(=O)[C@H](CCC(=O)O)NC(=O)[C@H](CCCCNC(=O)COCCOCCNC(=O)COCCOCCNC(=O)CC[C@H](NC(=O)CCCCCCCCCCCCCCCCC(=O)O)C(=O)O)NC(=O)[C@@H](NC(=O)[C@H](C)NC(=O)[C@H](CC(N)=O)NC(=O)[C@H](CC(=O)O)NC(=O)CNC(=O)[C@@H]1CCCN1C(=O)[C@H](Cc1ccc(O)cc1)NC(=O)[C@@H](NC(=O)[C@@H]1CCCN1C(=O)[C@H](CCC(=O)O)NC(=O)[C@H](CC(C)C)NC(=O)[C@@H]1CCCN1)C(C)C)[C@@H](C)O)C(=O)N[C@@H](CC(N)=O)C(=O)N[C@@H](CCSC)C(=O)N[C@@H](CC(C)C)C(=O)N[C@H](C(=O)N[C@@H](CCCNC(=N)N)C(=O)N1CCC[C@H]1C(=O)N[C@@H](CCCNC(=N)N)C(=O)N[C@@H](Cc1ccc(O)cc1)C(N)=O)[C@@H](C)O` [Compound T] (H-PLEPVYPGDNATK([AEEA-AEEA-γGlu-C18 diacid])EQMAQYAADLRRYINMLTRPRY-NH2; N-terminus and C-terminus assumed) belongs 45 h; to `CSCC[C@H](NC(=O)[C@H](CCC(N)=O)NC(=O)[C@H](CCC(=O)O)NC(=O)[C@@H]1CCCN1C(=O)[C@@H](NC(=O)[C@H](C)NC(=O)[C@H](CC(N)=O)NC(=O)[C@H](CC(=O)O)NC(=O)CNC(=O)[C@@H]1CCCN1C(=O)[C@H](Cc1ccc(O)cc1)NC(=O)[C@@H](NC(=O)[C@@H]1CCCN1C(=O)[C@H](CCC(=O)O)NC(=O)[C@@H](N)CC(C)C)C(C)C)[C@@H](C)O)C(=O)N[C@@H](C)C(=O)N[C@@H](CCC(N)=O)C(=O)N[C@@H](Cc1ccc(O)cc1)C(=O)N[C@@H](C)C(=O)N[C@@H](C)C(=O)N[C@@H](CC(=O)O)C(=O)N[C@@H](CC(C)C)C(=O)N[C@@H](CCCNC(=N)N)C(=O)N[C@@H](CCCNC(=N)N)C(=O)N[C@@H](Cc1ccc(O)cc1)C(=O)N[C@@H](CCCCNC(=O)COCCOCCNC(=O)COCCOCCNC(=O)CC[C@H](NC(=O)CCCCCCCCCCCCCCCCC(=O)O)C(=O)O)C(=O)N[C@@H](CC(N)=O)C(=O)N[C@@H](CCSC)C(=O)N[C@@H](CC(C)C)C(=O)N[C@H](C(=O)N[C@@H](CCCNC(=N)N)C(=O)N1CCC[C@H]1C(=O)N[C@@H](CCCNC(=N)N)C(=O)N[C@@H](Cc1ccc(O)cc1)C(N)=O)[C@@H](C)O` [Compound AN] (H-LEPVYPGDNATPEQMAQYAADLRRYK([AEEA-AEEA-γGlu-C18 diacid])NMLTRPRY-NH2; N-terminus and C-terminus assumed), 69 h; to `CC[C@H](C)[C@H](NC(=O)[C@H](Cc1ccc(O)cc1)NC(=O)[C@H](CCCNC(=N)N)NC(=O)[C@H](CCCNC(=N)N)NC(=O)[C@H](CC(C)C)NC(=O)[C@H](CC(=O)O)NC(=O)[C@H](C)NC(=O)[C@H](C)NC(=O)[C@H](Cc1ccc(O)cc1)NC(=O)[C@H](CCC(N)=O)NC(=O)[C@H](C)NC(=O)[C@H](CCSC)NC(=O)[C@H](CCC(N)=O)NC(=O)[C@H](CCC(=O)O)NC(=O)[C@@H]1CCCN1C(=O)[C@@H](NC(=O)[C@H](C)NC(=O)[C@H](CC(N)=O)NC(=O)[C@H](CC(=O)O)NC(=O)CNC(=O)[C@@H]1CCCN1C(=O)[C@H](Cc1ccc(O)cc1)NC(=O)[C@@H](NC(=O)[C@@H]1CCCN1C(=O)[C@H](CCC(=O)O)NC(=O)[C@H](CC(C)C)NC(=O)[C@@H]1CCCN1C(=O)COCCOCCNC(=O)COCCOCCNC(=O)CC[C@H](NC(=O)CCCCCCCCCCCCCCCCC(=O)O)C(=O)O)C(C)C)[C@@H](C)O)C(=O)N[C@@H](CC(N)=O)C(=O)N[C@@H](CCSC)C(=O)N[C@@H](CC(C)C)C(=O)N[C@H](C(=O)N[C@@H](CCCNC(=N)N)C(=O)N1CCC[C@H]1C(=O)N[C@@H](CCCNC(=N)N)C(=O)N[C@@H](Cc1ccc(O)cc1)C(N)=O)[C@@H](C)O` [Compound AF], 33 h.
Same read-out and setting: under `CC[C@H](C)[C@H](NC(=O)[C@H](Cc1ccc(O)cc1)NC(=O)[C@H](CCCNC(=N)N)NC(=O)[C@H](CCCNC(=N)N)NC(=O)[C@H](CC(C)C)NC(=O)[C@H](CC(=O)O)NC(=O)[C@H](C)NC(=O)[C@H](C)NC(=O)[C@H](Cc1ccc(O)cc1)NC(=O)[C@H](CCC(N)=O)NC(=O)[C@H](C)NC(=O)[C@H](CCSC)NC(=O)[C@H](CCC(N)=O)NC(=O)[C@H](CCC(=O)O)NC(=O)[C@@H]1CCCN1C(=O)[C@@H](NC(=O)[C@H](C)NC(=O)[C@H](CC(N)=O)NC(=O)[C@H](CC(=O)O)NC(=O)CNC(=O)[C@@H]1CCCN1C(=O)[C@H](Cc1ccc(O)cc1)NC(=O)[C@@H](NC(=O)[C@H](CCCCNC(=O)COCCOCCNC(=O)COCCOCCNC(=O)CC[C@H](NC(=O)CCCCCCCCCCCCCCCCC(=O)O)C(=O)O)NC(=O)[C@H](CCC(=O)O)NC(=O)[C@H](CC(C)C)NC(=O)[C@@H]1CCCN1)C(C)C)[C@@H](C)O)C(=O)N[C@@H](CC(N)=O)C(=O)N[C@@H](CCSC)C(=O)N[C@@H](CC(C)C)C(=O)N[C@H](C(=O)N[C@@H](CCCNC(=N)N)C(=O)N1CCC[C@H]1C(=O)N[C@@H](CCCNC(=N)N)C(=O)N[C@@H](Cc1ccc(O)cc1)C(N)=O)[C@@H](C)O` [Compound AC] stands 11 h.
